According to US7714017B2, “Carboxylic acid peri-substituted bicyclics for occlusive artery disease” (Decode Genetics, EHF, priority 2004, dated 2010):

Biological target: T1, prostanoid EP3 receptors (Homo sapiens, UniProt P43115)
T1 sequence (P43115 1-390): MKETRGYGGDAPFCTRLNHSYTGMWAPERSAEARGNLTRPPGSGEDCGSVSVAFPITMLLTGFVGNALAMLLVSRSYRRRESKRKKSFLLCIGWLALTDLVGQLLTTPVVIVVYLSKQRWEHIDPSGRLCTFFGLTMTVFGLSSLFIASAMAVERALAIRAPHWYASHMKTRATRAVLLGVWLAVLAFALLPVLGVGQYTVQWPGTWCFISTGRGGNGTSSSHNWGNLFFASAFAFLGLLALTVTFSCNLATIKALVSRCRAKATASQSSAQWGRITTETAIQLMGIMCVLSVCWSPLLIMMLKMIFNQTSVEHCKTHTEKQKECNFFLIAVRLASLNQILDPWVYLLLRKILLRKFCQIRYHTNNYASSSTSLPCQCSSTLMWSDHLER
Assay: binding on prostanoid EP3 receptors (method of Abramovitz et al.)
Conditions: Chart 1, read-out: Activity (EP3 receptor binding IC50 class)
Experimental: (§1) The compounds of the invention were assayed for their binding on prostanoid EP3 receptors according to the method of Abramovitz et al. [Bioch. Biophys. Acta, 1473, 285-293 (2000)]. […] Compounds with IC50<1 μM are shown as +++; compounds with IC50 1-10 μM are shown as ++; and compounds with IC50>10 μM are shown as +.
as §1, with “Acta.” for “Acta,”

| Compound | IC50 [µM] |
| --- | --- |
| Cc1cn(Cc2ccc(Cl)cc2Cl)c2c(/C=C/C(=O)O)cc(F)cc12 [Compound A31, (E)-3-[1-(2,4-dichloro-benzyl)-5-fluoro-3-methyl-1H-indol-7-yl]-acrylic acid] | < 1 |
| O=C(O)COc1cccc2oc(=O)n(Cc3ccc(Cl)cc3Cl)c12 [Compound A07] | 1 to 10 |
| CC12CCCC(/C=C/C(=O)O)=C1N(Cc1ccc3ccccc3c1)C(=O)C2 (stereo not drawn) [Compound A24, (E)-3-(3a-Methyl-1-naphthalen-2-ylmethyl-2-oxo-2,3,3a,4,5,6-hexahydro-1H-indol-7-yl)-acrylic acid] | 1 to 10 |
| Cc1cn(Cc2ccc(Cl)cc2Cl)c2c(/C=C/C(=O)O)cccc12 [Compound A09, (E)-3-[1-(2,4-Dichloro-benzyl)-3-methyl-1H-indol-7-yl]-acrylic acid] | < 1 |
| CC(=O)c1cn(Cc2ccc(Cl)cc2Cl)c2c(/C=C/C(=O)O)cccc12 [Compound A13, (E)-3-[3-Acetyl-1-(2,4-dichloro-benzyl)-1H-indol-7-yl]-acrylic acid] | 1 to 10 |
| O=C(O)/C=C/c1cccc2c(CO)cn(Cc3ccc(Cl)cc3Cl)c12 [Compound A10, (E)-3-[1-(2,4-Dichloro-benzyl)-3-hydroxymethyl-1H-indol-7-yl]-acrylic acid] | 1 to 10 |
| O=C(O)C=Cc1cccc2c1N(Cc1ccc(Cl)cc1Cl)C(=O)C21OCCO1 [Compound A16] | < 1 |
| O=C(O)/C=C/c1cccc2c1N(Cc1ccc(Cl)cc1Cl)C(=O)C2(F)F [Compound A20, (E)-3-[1-(2,4-Dichloro-benzyl)-3,3-difluoro-2-oxo-2,3-dihydro-1H-indol-7-yl]-acrylic acid] | 1 to 10 |
| O=C(O)/C=C/c1cnn2ccn(Cc3ccc4ccccc4c3)c12 [Compound A02, (E)-3-(1-Naphthalen-2-ylmethyl-1H-imidazo[1,2-b]pyrazol-7-yl)-acrylic acid] | 1 to 10 |
| CC12CCCC(/C=C/C(=O)O)=C1N(Cc1ccc(F)c(F)c1)C(=O)C2 (stereo not drawn) [Compound A30, (E)-3-[1-(3,4-Difluoro-benzyl)-3a-methyl-2-oxo-2,3,3a,4,5,6-hexahydro-1H-indol-7-yl]-acrylic acid] | 1 to 10 |
| O=C(O)COc1cccc2oc(=O)n(Cc3ccc4c(c3)OCO4)c12 [Compound A05, (3-Benzo[1,3]dioxol-5-ylmethyl-2-oxo-2,3-dihydro-benzooxazol-4-yloxy)-acetic acid] | 1 to 10 |
| Cn1nc(NC(=O)c2ccc3ccccc3c2)c2c(/C=C/C(=O)O)cccc21 [Compound A26, (E)-3-{1-Methyl-3-[(naphthalene-2-carbonyl)-amino]-1H-indazol-4-yl}-acrylic acid] | 1 to 10 |
| O=C(O)COc1cccc2oc(=O)n(Cc3ccc4ccccc4c3)c12 [Compound A04, (3-Naphthalen-2-ylmethyl-2-oxo-2,3-dihydro-benzooxazol-4-yloxy)-acetic acid] | 1 to 10 |
| CC(C)c1cn(Cc2ccc(Cl)cc2Cl)c2c(CCC(=O)O)cccc12 [Compound A14] | 1 to 10 |
| CC12CCCC(/C=C/C(=O)O)=C1N(Cc1cccc(F)c1)C(=O)C2 (stereo not drawn) [Compound A27, (E)-3-[1-(3-Fluoro-benzyl)-3a-methyl-2-oxo-2,3,3a,4,5,6-hexahydro-1H-indol-7-yl]-acrylic acid] | < 1 |
| O=C(O)COc1cccc2ncn(Cc3ccc(Cl)cc3Cl)c12 [Compound A21, [3-(2,4-Dichloro-benzyl)-3H-benzoimidazol-4-yloxy]-acetic acid] | < 1 |
| O=C(O)COc1cccc2oc(=O)n(Cc3ccc(Cl)c(Cl)c3)c12 [Compound A06, [3-(3,4-Dichloro-benzyl)-2-oxo-2,3-dihydro-benzooxazol-4-yloxy]-acetic acid] | 1 to 10 |
| Cn1nc(NCC(=O)O)c2c(Oc3ccc4ccccc4c3)cccc21 [Compound A25, [1-Methyl-4-(naphthalen-2-yloxy)-1H-indazol-3-ylamino]-acetic acid] | < 1 |
| CC12CCCC(/C=C/C(=O)O)=C1N(Cc1ccc(F)cc1)C(=O)C2 (stereo not drawn) [Compound A28, (E)-3-[1-(4-Fluoro-benzyl)-3a-methyl-2-oxo-2,3,3a,4,5,6-hexahydro-1H-indol-7-yl]-acrylic acid] | < 1 |
| O=C(O)COc1cccc2ncn(Cc3ccc4ccccc4c3)c12 [Compound A22, (3-Naphthalen-2-ylmethyl-3H-benzoimidazol-4-yloxy)-acetic acid] | > 10 |

More lines, now with the values ahead:

| IC50 [µM] | Compound |
| --- | --- |
| < 1 | CC12CCCC(/C=C/C(=O)O)=C1N(Cc1ccc(Cl)c(Cl)c1)C(=O)C2 (stereo not drawn) [Compound A34, (E)-3-[1-(3,4-Dichloro-benzyl)-3a-methyl-2-oxo-2,3,3a,4,5,6-hexahydro-1H-indol-7-yl]-acrylic acid] |
| 1 to 10 | Cn1cc(/C=C/C(=O)O)c2c(Oc3ccc(F)c(F)c3)cccc21 [Compound A42, (E)-3-[4-(3,4-Difluoro-phenoxy)-1-methyl-1H-indol-3-yl]-acrylic acid] |
| < 1 | CCOC(=O)C12CCCC(/C=C/C(=O)O)=C1N(Cc1ccc(Cl)cc1Cl)C(=O)C2 (stereo not drawn) [Compound A47, 7-((E)-2-Carboxy-vinyl)-1-(2,4-dichloro-benzyl)-2-oxo-1,2,3,4,5,6-hexahydro-indole-3a-carboxylic acid ethyl ester] |
| 1 to 10 | CC12CCCC(CCC(=O)O)C1N(Cc1ccc(F)c(F)c1)C(=O)C2 (stereo not drawn) [Compound A49, 3-[1-(3,4-Difluoro-benzyl)-3a-methyl-2-oxo-octahydro-indol-7-yl]-propionic acid] |
| 1 to 10 | Cc1cn(Cc2cn3ccccc3n2)c2c(/C=C/C(=O)O)cc(F)cc12 [Compound A57, (E)-3-(5-Fluoro-1-imidazo[1,2-a]pyridin-2-ylmethyl-3-methyl-1H-indol-7-yl)-acrylic acid] |
| < 1 | Cn1cc(/C=C/C(=O)O)c2c(Oc3ccc(Cl)cc3F)cccc21 [Compound A45, (E)-3-[4-(4-Chloro-2-fluoro-phenoxy)-1-methyl-1H-indol-3-yl]-acrylic acid] |
| 1 to 10 | CN1C(=O)C(C(=O)Nc2ccc(Cl)cc2Cl)c2c(/C=C/C(=O)O)cccc21 (stereo not drawn) [Compound A33, (E)-3-[3-(2,4-Dichloro-phenylcarbamoyl)-1-methyl-2-oxo-2,3-dihydro-1H-indol-4-yl]-acrylic acid] |
| < 1 | CC12CCCC(/C=C/C(=O)O)=C1N(Cc1ccc(Cl)cc1Cl)C(=O)C2 (stereo not drawn) [Compound A32, (E)-3-[1-(2,4-Dichloro-benzyl)-3a-methyl-2-oxo-2,3,3a,4,5,6-hexahydro-1H-indol-7-yl]-acrylic acid] |
| > 10 | O=C(O)C(=O)Nc1cccc2c1N(Cc1ccc3ccccc3c1)C(=O)CO2 [Compound A51, N-(4-Naphthalen-2-ylmethyl-3-oxo-3,4-dihydro-2H-benzo[1,4]oxazin-5-yl)-oxalamic acid] |
| < 1 | O=C(O)/C=C/c1cccc2c1N(Cc1ccc(Cl)cc1Cl)C(=O)C2(CO)CO [Compound A62, (E)-3-[1-(2,4-Dichloro-benzyl)-3,3-bis-hydroxymethyl-2-oxo-2,3-dihydro-1H-indol-7-yl]-acrylic acid] |
| < 1 | O=C(O)/C=C/c1cccc2c1N(Cc1ccc3ccccc3c1)C(=O)C2=O [Compound A56, (E)-3-(1-Naphthalen-2-ylmethyl-2,3-dioxo-2,3-dihydro-1H-indol-7-yl)-acrylic acid] |
| < 1 | Cn1cc(/C=C/C(=O)O)c2c(Oc3ccc(Cl)cc3Cl)cccc21 [Compound A40, (E)-3-[4-(2,4-Dichloro-phenoxy)-1-methyl-1H-indol-3-yl]-acrylic acid] |
| 1 to 10 | Cn1cc(/C=C/C(=O)O)c2c(Oc3ccc(F)c(Cl)c3)cccc21 [Compound A38, (E)-3-[4-(3-Chloro-4-fluoro-phenoxy)-1-methyl-1H-indol-3-yl]-acrylic acid] |
| 1 to 10 | CN(C)Cc1cn(Cc2ccc3ccccc3c2)c2c(/C=C/C(=O)O)cccc12 [Compound A55] |
| < 1 | Cn1cc(/C=C/C(=O)O)c2c(Oc3ccc4ccccc4c3)cccc21 [Compound A44, (E)-3-[1-Methyl-4-(naphthalen-2-yloxy)-1H-indol-3-yl]-acrylic acid] |
| 1 to 10 | Cc1cn(Cc2ccc(Cl)cc2Cl)c2c(/C=C/C(O)(C(F)(F)F)C(F)(F)F)cc(F)cc12 [Compound A64, (E)-4-[1-(2,4-Dichloro-benzyl)-5-fluoro-3-methyl-1H-indol-7-yl]-1,1,1-trifluoro-2-trifluoromethyl-but-3-en-2-ol] |
| 1 to 10 | Cc1cc2c(=O)n(C)c(=O)n(CCC(=O)O)c2n1Cc1ccc(Cl)cc1Cl [Compound A63, 3-[7-(2,4-Dichloro-benzyl)-3,6-dimethyl-2,4-dioxo-2,3,4,7-tetrahydro-pyrrolo[2,3-d]pyrimidin-1-yl]-propionic acid] |
| 1 to 10 | O=C(O)/C=C/c1cccc2c1N(Cc1ccc(F)c(F)c1)C(=O)C2=O [Compound A60, (E)-3-[1-(3,4-Difluoro-benzyl)-2,3-dioxo-2,3-dihydro-1H-indol-7-yl]-acrylic acid] |
| 1 to 10 | CC12CCCC(/C=C/C(=O)O)=C1N(Cc1cccc(Cl)c1)C(=O)C2 (stereo not drawn) [Compound A35, (E)-3-[1-(3-Chloro-benzyl)-3a-methyl-2-oxo-2,3,3a,4,5,6-hexahydro-1H-indol-7-yl]-acrylic acid] |
